# Source: patent publication US20060047171A1, “Catalytic hydrogenation of nitriles to produce capsaicinoid derivatives and amine compounds, and methods for purifying and obtaining the polymorphs thereof” (priority 2003, published 2006)
# Entries after “also recorded” stand apart in the source; their conditions may differ. Read-outs that look alike come from different tables or passages of the source.
# How the values were obtained:
# [1] = system: tail flick response to radiant heat; conditions: cited from earlier work; for Inhibition (%): mice
# [2] = system: yeast induced hyperalgesia; assay: Randall-Selitto test; type: in vivo, rat; conditions: rats, pain threshold of yeast-injected foot
# Protocol: Randall-Selitto Test was carried out by following the method described in Arch. Int.
# Male albino rats (120-170 g) of the Charles River Sprague-Dawley strain are used. Inflammation is produced by the injection of 0.1 mL of a 20% suspension of Brewer's yeast into the plantar surface of the rat's hind foot.
# The pain threshold is measured as the pressure in mm Hg required to induce the desired response (a sharp audible squeak and/or struggle) when the pressure is applied to the foot. Air pressure from an air line is admitted through a needle valve to a 20 mL glass syringe and to a pressure gauge connected by a T-tube. The syringe is mounted with the plunger downward to which is connected a short bullet-shaped Teflon peg. The pressure is applied to the foot of the rat at the rate of 10 mmHg per second. Drug is given 2 hours after the yeast injection. Two hours after the drug administration, threshold response is determined.
# The analgesic activity was determined in terms of the percentage of inhibition of response: Inhibition (%)=(TTG−TCG)/TCG×100, where TTG is the Threshold of Treated Group, and TCG is the Threshold of the Control Group.
# [3] = Solubility curve / metastable zone width in methanol/water (1:1.25, v/v); type: physicochemical
# Protocol: A standard procedure to determine the width of the metastable zone was used to determine the solubility curves of DA-5018 in methanol/water (1:1.25, v/v). In this procedure, DA-5018 (2.0 g) was suspended in 15 mL (7.5 vol) of methanol/water (1:1.25, v/v) and heated until all solids were dissolved (approximately 55° C.). The resulting solution was then very slowly cooled at a fixed rate of 0.2° C./min and the nucleation temperature recorded. The mixture was slowly reheated and the temperature of complete dissolution recorded. The solution was then iteratively diluted with a known volume of solvent and the nucleation as well as the dissolution points recorded at gradually lower concentrations to provide additional data points on the saturation curve as well as on the solubility curve. By definition, for a given concentration, the distance between the solubility curve and the saturation curve provides the metastable zone width (MSZW), in which crystal growth can be achieved upon careful seeding and controlled cooling, antisolvent addition, evaporation or pH adjustment, depending on the chosen crystallization conditions. Such a protocol is often crucial in maximizing crystal growth and curbing spontaneous, secondary nucleation that leads to uncontrolled crystallization.
# [4] = Qualitative solubility of DA-5018 in common solvents; type: physicochemical
# Protocol: In order to show which solvents or solvent/antisolvent combinations are appropriate for crystallization studies, the solubility of DA-5018 in twelve solvents was qualitatively evaluated on a 500 mg-scale. In these experiments, DA-5018 was suspended in 5 volumes of the appropriate solvent and stirred at ambient temperature, then incrementally heated until a complete solubilization was achieved.
# [5] = Hygroscopicity by dynamic vapor sorption (DVS); type: physicochemical; conditions: for hygroscopicity (in words): DVS, conditions up to 90% RH
# Protocol: Dynamic vapor sorption analysis (DVS) was at times performed on the sample “as is”. Samples were placed in sample pan and underwent a 2-hour drying in a dry nitrogen stream. The samples were then analyzed under the following conditions:
# Isothermal Sequence: • Adsorption: 10-90% RH; step size 10% • Desorption: 85-0% RH; step size 10%
# Each RH point was obtained after the weight loss curve reached an asymptote. After the isotherm was complete, the sample was heated to 80° C. until the weight loss curve reached an asymptote or for 4 hours maximum.
# Hygroscopicity studies were conducted by DVS on both the original Form I (FIG. 4) and the thermally converted Form II (FIG. 5) of DA-5018. […] In an attempt to further evaluate the physical form of the dihydrate, a second sample of DA-5018 was converted to the dihydrate by exposing the material to 85% RH overnight in the DVS instrument.
# [6] = Thermal stress experiments (DSC and XRPD), interconversion of forms; type: physicochemical
# Protocol: To further evaluate these observations, DSC thermograms were obtained for select compounds at various ramping rates to evaluate interconversion of forms, as shown in FIGS. 2(a)-2(c) and 3(a)-3(c). FIGS. 2(a)-2(c) show the conversion of Form I to Form II. The conversion is most readily observed in FIG. 2(a), as conversion was more difficult to observe at the faster ramp rates. […] Additionally, isothermal heating experiments were performed with evaluation by DSC and XRPD to confirm any change of form, as shown in FIGS. 2(d)-2(f) and 3(d)-(f) and Table 3. FIGS. 2(e) and 3(e) show the original XRPD for Forms I and IV, respectively, while FIGS. 2(f) and 3(f) show the XRPD of Form II, formed after thermal conversion.
# [7] = system: adjuvant induced hyperalgesia; conditions: 5 mg/Kg; rats; DA-5018 perorally two hours before tail-pinch testing; cited from earlier work
compound,measurement,setting,value
"3-(3,4-Dimethylphenyl)acrylonitrile [Example 1]",Inhibition (%),[1]; 0.5 mg/Kg s. c.,50%
same,Inhibition (%),[1]; 1.0 mg/Kg s. c.,70%
CC(=O)Oc1ccccc1C(=O)O [Aspirin],Inhibition (%),[2]; 100 mg/Kg s. c.,80.1%
same,Inhibition (%),[1]; 100 mg/Kg p. o.,0%
"COc1cc(CNC(=O)CCCC/C=C/C(C)C)ccc1O [Capsaicin, trans-8-methyl-N-vanillyl-6-nonenamide]",Inhibition (%),"[1]; 25 mg/Kg, route not given",90%
"COc1cc(CC(=O)NCCCc2ccc(C)c(C)c2)ccc1OCCN [DA-5018, 2-[4-(2-aminoethoxy)-3-methoxyphenyl]-N-[3-(3,4-dimethylphenyl)propyl]acetamide]",Nucleation Temperature (° C.),"[3]; 2.0 g DA-5018 in 15 mL methanol/water (1:1.25, v/v), cooled at 0.2° C./min",39.1 °C
same,Nucleation Temperature (° C.),"[3]; 2.0 g DA-5018 in 20 mL methanol/water (1:1.25, v/v)",34.6 °C
same,Nucleation Temperature (° C.),"[3]; 2.0 g DA-5018 in 25 mL methanol/water (1:1.25, v/v)",34.5 °C
same,Nucleation Temperature (° C.),"[3]; 2.0 g DA-5018 in 30 mL methanol/water (1:1.25, v/v)",34.2 °C
same,solubility (in words),"[4]; MEK, MIBK, EtOAc, IPAc and acetonitrile",sparingly soluble
same,solubility (in words),[4]; methanol at 50° C.,freely soluble
same,solubility (in words),"[4]; methyl tert-butyl ether (MTBE), even at reflux",limited solubility
same,DA-5018 Solubility Trend,"[4]; ranking of solvents, 500 mg-scale, 5 volumes of solvent, ambient temperature then incrementally heated","Acetone >> Methanol > THF > Ethanol, 1-Propanol > 2-; also recorded: Propanol> MEK > MIBK > CH3CN, EtOAc, IPAc >> MTBE >>> Water"
same,Inhibition (%),[2]; 5 mg/Kg p. o.,247.4%
"COc1cc(CC(=O)NCCCc2ccc(C)c(C)c2)ccc1OCCN [Form I, 2-[4-(2-aminoethoxy)-3-methoxyphenyl]-N-[3-(3,4-dimethylphenyl)propyl]acetamide]",hygroscopicity (in words),[5],propensity to absorb moisture
same,relative humidity at which moisture is taken up,"[5]; less crystalline, or amorphous, samples",approximately 30 % RH
same,conversion of form under thermal conditions (in words),"[6]; 10 minutes of isothermal heating near melting point, 105° C.",convert to Form II
"COc1cc(CC(=O)NCCCc2ccc(C)c(C)c2)ccc1OCCN [Form II, 2-[4-(2-aminoethoxy)-3-methoxyphenyl]-N-[3-(3,4-dimethylphenyl)propyl]acetamide]",moisture retention upon desorption (in words),[5]; DVS desorption,did not retain moisture upon desorption
same,hygroscopicity (in words),[5],non-hygroscopic; also recorded: no appreciable hygroscopicity
"COc1cc(CC(=O)NCCCc2ccc(C)c(C)c2)ccc1OCCN [Form III, 2-[4-(2-aminoethoxy)-3-methoxyphenyl]-N-[3-(3,4-dimethylphenyl)propyl]acetamide]",relative humidity to which the dihydrate is stable upon desorption,[5]; DVS desorption,≥ 30 % RH
"COc1cc(CC(=O)NCCCc2ccc(C)c(C)c2)ccc1OCCN [Form IV, 2-[4-(2-aminoethoxy)-3-methoxyphenyl]-N-[3-(3,4-dimethylphenyl)propyl]acetamide]",conversion of form under thermal stress / melt (in words),"[6]; DSC at various ramping rates, melt",conversion of Form IV to Form II
CN1CC[C@]23c4c5ccc(O)c4O[C@H]2[C@@H](O)C=C[C@H]3[C@H]1C5 [Morphine],Inhibition (%),[2]; 3 mg/Kg s. c.,391.7%
same,activity in the tail flick test (in words),"[1]; mouse, in vivo",active
CCCCCCCC/C=C\CCCCCCCC(=O)NCc1ccc(OCCN)c(OC)c1 [NE-21610],Inhibition (%),[1]; 200 mg/Kg p. o.,50%
COc1ccc2cc([C@H](C)C(=O)O)ccc2c1 [Naproxen],Analgesic activity (%),[7],28.6%
CN1C(C(=O)Nc2ccccn2)=C(O)c2ccccc2S1(=O)=O [Piroxicam],Inhibition (%),[1]; 100 mg/Kg p. o.,0%
